From patent publication US7943586B2, “Antineoplastic agents targeted via glut transporters” (The Trustees of the University of Pennsylvania, priority 2003, dated 2011)

Experiments:
[1] = system: AR42J tumors (pancreatic acinar carcinoma); experiment: In vivo NIR phased array optical imaging of submerged AR42J tumors in nu/nu mice; design: species or system mouse; settings: 3.5 hours after tail vein injection of 200 μL, tumor 1.5 cm deep
From the text: In vivo NIR optical imaging system: To image and localize subsurface fluorochrome labeled tumors, an NLR imaging system utilizing diffusion photons (Patterson, M. S.; Chance, B.; Wilson, B. C., Time resolved reflectance and transmittance for the non-invasive measurement of tissue optical properties. Applied Optics 1989, 28, 2331-2336.
Fishkin, J. B.; Gratton, E., Propagation of photon-density waves in strongly scattering media containing an absorbing seni-infinite plane bounded by a straight edge. Journal of the Optical Society of America A 1993, 10, 127-140.) has been developed. The in vivo fluorescence optical imaging system consists of a pair of laser diodes operating at 780 nm. […]
Intes, X.; Chen, Y.; Li, X. D.; Chance, B., Detection limit enhancement of fluorescent heterogeneities in turbid media by dual-interfering excitation. […] A 3-mm-in-diameter fiber bundle collects the fluorescence signal from the fluorophore taken by in the tumor. […] The fluorescence signal is then detected by the photomultiplier tube (PMT) and demodulated by the 50 MD receiver to obtain the amplitude and phase information. […] (Chen, Y.; Zheng, G.; Zhang, Z. H.; Blessington, D.; Zhang, M.; Li, H.; Iiu, Q.; Zhou, L.; Intes, X.; Achilefu, S.; Chance, B., Metabolism-enhanced tumor localization by fluorescence imaging: in vivo animal studies. Optics Letters 2003, 28, (21), 2070-2072). […]

9L glioma cells = experiment: Confocal microscopy of uptake and localization in 9L glioma cells, with or without D-glucose; format: cell-based, rat; settings: for uptake / localization in 9L glioma cells / effect of D-glucose on uptake / localization in 9L glioma cells: 50 μM, 30 min, 37° C.; for effect of D-glucose on uptake / localization in 9L glioma cells: 50 mM D-glucose; for subcellular localization in 9L glioma cells: 100 μM Pyro-2DG with 10 μg/ml Rhodamine-123, 15 min post-incubation
Experimental: Confocal Microscopic Studies: 9L glioma cells were grown for 5 days in 4-well Lab-Tek chamber slides (Naperville, Ill.). Before the cell experiments, the culture medium was replaced by preincubation medium (medium with 1% (w/v) BSA instead of FBS). The cells were washed three times with preincubation medium (for 15, 15, and 30 min), and cultured in this medium for a further 20 hours. Experiments were started, after two quick washes with preincubation medium, by the addition of preincubation medium containing the indicated amounts of Pyro-2DG and/or D-Glucose. After 30 minutes incubation at 37° C., the cells were washed five times with ice-cold PBS containing 0.8% BSA, two times with PBS alone, and fixed for 20 minutes with 2% formaldehyde in PBS at room temperature. Then the chamber slides were mounted and sealed for confocal microscopic analysis.
9L glioma cells, obtained from Department of Radiation Oncology at University of Pennsylvania, were cultured in Modified Eagle's Medium (NEM) supplemented with 15% newborn calf serum (NCS), 100 U/ml penicillin-streptomycin. Murine melanoma B16 cells, obtained from Dr. Theo van Berkel's laboratory at the University of Leiden, Netherlands, were cultured in Dulbeco's modified Eagle's medium (DMM) supplemented with 10% fetal bovine serum (FBS) and 100 U/n-d penicillin-streptomycin Cells were grown at 37° C. in an atmosphere of 5% CO2 in a humidified incubator. Cells were grown for 5 days in 4-well Lab-Tek chamber slides (Naperville, Ill.) before the experiment. Indicated amounts of NIRF-2DGs with or without D-Glucose and Rbodarninc-123 were incubated with 9L glioma cells/B16 melanoma cells at 37° C. for 30 min after 3 washes with Dulbecco's Phosphate Buffered Saline (D-PBS). After incubation, the cells were washed five times with ice-cold PBS and Fixed for 20 minutes with 2% formaldehyde in PBS at room temperature. Then the chamber slides were mounted and sealed for confocal niicroscopic analysis. Confocal aticroscopic images were obtained with TCS SPII laser scanning confocal microscope (LSCM) (Heidelber, Germany).

9L glioma = format: in vivo, rat
Experimental: Animals: Rat 9L glioma was implanted on the flanks of male Fisher 344 rats (150 -200 g) via subcutaneous injection of 0.1 mL, ˜10^6 9L glioma cells. Within ten days, tumors grew to the desired size of 1 cm in diameter.
After not feeding animals for 24 hours, the rats were anaesthetized via intraperitoneal injection of Ketamine (75 mg/kg) and Xylazine (10 mg/kg). Pyro-2DG (2 mL, concentration: 0.25 mg/mL) was injected via tail vein infusion over a period of 1 hour (dose: 2.5 mg/kg). Thirty minutes later, the rats were anesthetized again and subjected to PDT.
PDT Protocol: A “point treatment” protocol was designed for evaluating PDT response of Pyro-2DG. PDT was carried out using a KTP YAG pumped dye module (Laserscope, San Jose, Calif.) tuned to produce 670 nm light. Light delivery was through a 1 mm fiber to create a treatment spot of 0.96 mm in diameter when the fiber was held closely adjacent to the tumor. The light field was fixed in position at the center of the tumor by mounting the fiber in the center of a circular plate which was glued to the anesthetized animal. The light was delivered at a fluence rate of 75 mW/cm^2 to a total dose of 175 J/cm^2. Laser power output was measured with a power meter (Coherent, Auburn, Calif.).
Fluorescence Imaging of Tumors (Quistorff, B., Haselgrove, J. C., and Chance, B. (1985) High spatial resolution readout of 3-D metabolic organ structure: an automated, low-temperature redox ratio-scanning instrument. Anal. Biochem. 148, 389-400; Gu, Y. Q., Qian, Z. Y., Chen, J. X., Blessington, D., Ramanujam, N., and Chance, B. (2002) High-resolution three-dimensional scanning optical image system for intrinsic and extrinsic contrast agents in tissue. Rev. Sci. Instruments 73, 172-178; Ramanujam, N., Richards-Kortum, R., Thomsen, S., Mahadevan-Jansen, A., Follen M., and Chance B. (2001) Low temperature fluorescence imaging of freeze-trapped human cervical tissues. Opt. Express 8, 335-343): Immediately after PDT, animals were immersed in pre-cooled isopentane (−150° C.) and transferred to liquid nitrogen (−196° C.) 5 minutes later. Tumors were then surgically excised, embedded in a mixture of ethanol-glycerol-water (freeze point: −30° C.), and mounted at low temperature for 3D surface fluorometric scanning. […] The fluorescence signal was automatically digitized and recorded on a PC. The redox ratio of FP/(FP+PN) was calculated with MATLAB.
A “point treatment” protocol for evaluating PDT response of Pyro-2DG was designed. […] Based on the absorption and emission maxima of Pyro-2DG (λex=665 nm; λem=720 nm), the 9L tumor was treated with 670 nm laser light, and a 700 nm long pass filter was incorporated into the 3D fluorescence scanner for collecting the Pyro-2DG fluorescence at 720 nm. […]

[2] = Biodistribution in organs of a normal Fisher 344 rat by Cryo-imager; format: in vivo; settings: 1 hour after intravenous administration, preliminary
Experimental: FIG. 9. Pyro-2DG uptake in different organs of a Fisher 344 rat after 1 h tail vein infusion of 2 ml of 2.5 mg/kg Pyro-2DG. Liver (top left), kidney (bottom left), spleen (bottom middle) and brain (bottom right). Images of the frozen liver and of the control liver (no Pyro-2DG), respectively, appear in the top middle and right hand panels.
In order to determine the biodistribution of the Pyro-2DG, a normal Fisher 344 rat was sacrificed and different organs were scanned for Pyro-2DG fluorescence with Cryo-imager 1 hour after Pyro-2DG was intravenously administered.

[3] = Water solubility / miscibility of Pyro-2DG; format: physicochemical
[4] = after PDT, 670 nm, 75 mW/cm^2, 175 J/cm^2

Compound: 2-deoxyglucose conjugate of Bacteriopurpurin-18-N-3′-(isothiocyanate)-propylimide [BChlPP-2DG]
- enhancement of the tumor region [1]: enhanced

Compound: CC1(C)C(/C=C/C=C/C=C/C=C2\N(CCCCS(=O)(=O)O)c3ccc4ccccc4c3C2(C)C)=[N+](CCCCS(=O)(=O)[O-])c2ccc3ccccc3c21 [ICG, Indocyanine Green, reference compound]
- enhancement of the tumor region [1]: no significant enhancement

Compound: Pyropheophorbide-2-deoxyglucosamide [Pyro-2DG]
- uptake / localization in 9L glioma cells (9L glioma cells): localizes within 9L glioma cells
- effect of D-glucose on uptake / localization in 9L glioma cells (9L glioma cells): competitively inhibited by D-glucose
- subcellular localization in 9L glioma cells (9L glioma cells): localize in mitochondria
- NADH fluorescence of irradiated spot (9L glioma; [4]): significant decrease
- PP fluorescence of irradiated spot (9L glioma; [4]): marked increase
- redox ratio of the tumor FP/(FP+PN) (9L glioma; after PDT, irradiated region): dramatic increase
- effect on mitochondrial activities (redox state) of the tumor (9L glioma; rat, in vivo): no effect on the mitochondrial activities of the tumor
- accumulation in liver [2]: accumulated predominantly in liver
- accumulation in spleen and kidney [2]: lesser accumulation in spleen and kidney
- crossing of the blood-brain barrier [2]: does not cross the blood-brain barrier
- miscibility with water ([3]; formulation with detergent (1% Tween 80)): completely miscible with water
- water solubility ([3]; without detergent): only partially water-soluble

Compound: Rhodamine 123 [Rhodamine-123, reference compound]
- subcellular localization in 9L glioma cells (9L glioma cells): localize in mitochondria

Compound: pyropheophorbide a [reference compound]
- uptake / localization in 9L glioma cells (9L glioma cells): concentration dependent
- effect of D-glucose on uptake / localization in 9L glioma cells (9L glioma cells): not inhibited by D-glucose
